This is an account of results in patent US9890192B2, “Targeted nitroxide agents” (University of Pittsburgh—of the Commonwealth System of …, priority 2008, dated 2018).

For data set [1], the system named is Ercc1−/cond; K14-Cre mice. Nature of the data set: Photoaging after UV-B in Ercc1−/cond; K14-Cre mice. The conditions noted are these: 80 μg in a cream daily for five days. It is filed as in vivo, mouse. As to the method:
As a measure of the effect of XJB-5-131 on photoaging, Ercc1^−/cond; K14-Cre mice, which are missing ERCC1 only in the skin, were shaved, treated with a depilatory then irradiated with UV-B light to induce a sunburn (500 J/m^2, the median erythemal dose). Subsequently, the mice were treated with XJB-5-131 (80 μg) emulsified in a cream daily for five days.

In a further data set the test system is progeroid Ercc1−/Δ mice. Nature of the data set: Signs of aging in progeroid Ercc1−/Δ mice. In kind it is in vivo, mouse. The note with it: 2 mg/kg intraperitoneally three times per week. As to the method: To assess the effectiveness of XJB-5-131 in inhibiting degeneration and/or signs of aging, the compound was administered, over an 18-21 week period, progeroid Ercc1^−/Δ mice, at a dose of 2 mg/kg in sunflower oil carrier (to promote solubility) administered intraperitoneally three times per week (FIG. 32). Sunflower seed oil was administered to twin Ercc1^−/Δ mice according to the same schedule as a control. The treated and control mice were monitored twice a week for weight and symptom/sign development.
FIG. 33 presents a summary table showing the results of the treatment with XJB-5-131 (“XJB” in this figure), relative to control (sunflower seed oil) after treatment from 5 wks of life until death. The numbers indicate the average age at onset of each age-related symptom for mice treated with XJB-5-131 or vehicle only (oil) (n=5 mice per group). […] Of note, all of the signs of neurodegeneration, including dystonia, trembling, ataxia, wasting and urinary incontinence were delayed in the treated animals, providing strong evidence that XJB-5-131 protects neurons against degenerative changes caused by oxidative stress.
To assess the ability of XJB-5-131 to inhibit deterioration of intervertebral discs (an index of degenerative disease of the vertebra), the level of glycosaminoglycan in the discs in treated and control mice were measured, and the results are shown in FIG. 34. The intervertebral discs of treated mice contained approximately 30 percent more glycosaminoglycan relative to control mice, indicating inhibition of disc degeneration.

Data set [2] deals with rat ileal mucosal permeability. The data set can be described thus: Intestinal mucosal permeability assay (FD4) after hemorrhagic shock. It is filed as in vivo. As to the method: Intestinal mucosal permeability assay. Animals were allowed access to water but not food for 24 h prior to the experiment in order to decrease the volume of intestinal contents. The rats were instrumented as described above. A midline laparotomy was performed and the small intestine was exteriorized from the duodenojejunal junction to the ileocecal valve. A small incision was made on the antimesenteric aspect of the proximal small intestine and saline solution (1.5 ml) was injected. The bowel was ligated proximally and distally to the incision with 4-0 silk (Look, Reading, Pa.).
The small intestine was compressed gently in aboral direction along its length to displace intestinal contents into the colon. Starting 5 cm from the ileocecal valve, the ileum was partitioned into six contiguous water-tight segments. Each segment was 3 cm long and was bounded proximally and distally by constricting circumferential 4-0 silk sutures. Care was taken to ensure that the vascular supply to intestine was not compromised, and each segment was well-perfused.
Two randomly selected segments in each rat were injected with 0.3 ml of vehicle and served as “no treatment” controls. In order to fill the segments, a small incision was made and the solution was injected using a Teflon catheter (Abbocath 16Ga, Abbot Laboratories).
The remaining four other segments were injected with solutions containing either 4-hydroxy-2,2,6,6-tetramethylpiperidine-N-oxyl (TEMPOL) or one of the Gramicidin S-based compounds. Four different final concentrations of TEMPOL in normal saline were evaluated: 0.1, 1, 5 and 20 mM. The hemigranmicidin-based compounds were dissolved in a mixture of dimethylsulfoxide (DMSO) and normal saline (1:99 v/v) and injected at final concentrations of 0.1, 1, 10 or 100 μM. […]
Fluorescence of FD4 in the solution inside the beaker and within each gut sac was measured using a fluorescence spectrophotometer (LS-50, Perkin-Elmer, Palo Alto, Calif.) at an excitation wavelength of 492 nm and an emission wavelength of 515 nm. […]

For data set [3], the system named is mouse embryonic cells (MEC). The data set can be described thus: EPR-based analysis of integration and reduction of nitroxide Gramicidin S-peptidyl conjugates in MECs. In kind it is cell-based. The note with it: 10 μM, whole cells, cytosol fractions. As to the method: Electron paramagnetic resonance (“EPR”) spectroscopy was used to monitor the cellular delivery of compounds 5a and 5b shown in FIG. 3 in mouse embryonic cells (“MEC”).
The following conditions were used during the EPR-based analysis of the integration and reduction of nitroxide Gramicidin S-peptidyl conjugates in MECs. The MECs at a concentration of 10 million MECs per mL were incubated with 10 μM of 4-AT and compound 5a, respectively. Recovered nitroxide radicals in whole cells, mitochondria, and cytosol fractions were resuspended in phosphate buffer saline (“PBS”) in the presence and absence, respectively, of 2 μM K3Fe(CN)6.

Entries after “also recorded” stand apart in the source; their conditions may differ.

With `CC(C)C[C@@H](/C=C/[C@H](Cc1ccccc1)C(=O)N1CCC[C@H]1C(=O)N[C@H](C(=O)N[C@@H](CCCNC(=O)OCc1ccccc1)C(=O)NC1CC(C)(C)N([O])C(C)(C)C1)C(C)C)NC(=O)OC(C)(C)C` [XJB-5-131], the “appearance of skin after UV-B” value in data set [1] was “much more smooth and healthy”. Moreover, in the data set with progeroid Ercc1−/Δ mice, the “age at onset of age-related symptoms” value is “significantly delayed”; the “body weight / tolerability” value is “did not lose weight; also recorded: does not cause weight loss”; the “glycosaminoglycan in intervertebral discs, more relative to control mice” value is “approximately 30%”; the overall aging score result is “significantly improved”. The “signs of neurodegeneration (dystonia, trembling, ataxia, wasting, urinary incontinence)” value with progeroid Ercc1−/Δ mice is reported as “delayed”. Also, the “potency relative to TEMPOL” value in data set [2] (from lowest effective concentrations) is on record as approximately 1000 fold. Besides, in data set [2] (intraluminal), the “hemorrhagic shock-induced mucosal hyperpermeability, of the control value” was “approximately 60%” and the lowest effective concentration is 1 µM. Besides, in data set [3], the “EPR signals of nitroxide radicals; integration into cells and mitochondria” value is given as “concentrated in the mitochondria”.
